From the supplement of paper PMC10307832

Legend:
Test in all cases: relative viability (nuclei count vs DMSO), 5 days (fraction); higher = more cells survive
[1] = compound: COc1cc(-c2nn([C@H]3CC[C@H](N4CCN(C(C)=O)CC4)CC3)c3ncnc(N)c23)ccc1NC(=O)c1cc2ccccc2n1C + CC(=O)Nc1cccc(-n2c(=O)n(C3CC3)c(=O)c3c(Nc4ccc(I)cc4F)n(C)c(=O)c(C)c32)c1 [Trametinib] (partner 0.02 µM)
Summary of the method: (§1)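 One day after seeding in 1536-well plates, lung cancer cell lines were dosed by pin tool. Dosing was either single-drug or a fixed anchor-drug dose plus five library-drug doses (not always all listed) in √10 steps. After 5 days, nuclei were stained in one fix-and-stain step and counted on 4× images, and relative viability is the nuclei count of treated wells over that of vehicle wells, given as the median of duplicate plates.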

Midostaurin + Foretinib = compound: CO[C@@H]1[C@H](N(C)C(=O)c2ccccc2)C[C@H]2O[C@]1(C)n1c3ccccc3c3c4c(c5c6ccccc6n2c5c31)C(=O)NC4 [Midostaurin] + COc1cc2c(Oc3ccc(NC(=O)C4(C(=O)Nc5ccc(F)cc5)CC4)cc3F)ccnc2cc1OCCCN1CCOCC1 [Foretinib] (partner 0.25 µM)
Summary of the method: as §1

Midostaurin + Navitoclax = compound: CO[C@@H]1[C@H](N(C)C(=O)c2ccccc2)C[C@H]2O[C@]1(C)n1c3ccccc3c3c4c(c5c6ccccc6n2c5c31)C(=O)NC4 [Midostaurin] + CC1(C)CCC(c2ccc(Cl)cc2)=C(CN2CCN(c3ccc(C(=O)NS(=O)(=O)c4ccc(N[C@H](CCN5CCOCC5)CSc5ccccc5)c(S(=O)(=O)C(F)(F)F)c4)cc3)CC2)C1 [Navitoclax] (partner 0.5 µM)
Summary of the method: as §1

[2] = compound: COc1cc(-c2nn([C@H]3CC[C@H](N4CCN(C(C)=O)CC4)CC3)c3ncnc(N)c23)ccc1NC(=O)c1cc2ccccc2n1C
Summary of the method: (§2)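 Five library-drug doses spaced by √10 were pinned onto vehicle-anchored 1536-well plates of lung cancer cell lines that had been kept overnight at 37 °C. Cells went 5 days without medium change, then were fixed, permeabilised and Hoechst-stained together, imaged at 4× and counted by MetaXpress. Viability is the ratio of treated-well to vehicle-well nuclei, taken as a median over plates. Plates required control CV below 25% and at least one doubling.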

Midostaurin = compound: CO[C@@H]1[C@H](N(C)C(=O)c2ccccc2)C[C@H]2O[C@]1(C)n1c3ccccc3c3c4c(c5c6ccccc6n2c5c31)C(=O)NC4 [Midostaurin]
Summary of the method: as §2

| Cell Line | relative viability ([1]; first compound 0.0128 µM) | relative viability ([1]; first compound 0.04048 µM) | relative viability ([1]; first compound 0.128 µM) | relative viability ([1]; first compound 1.28 µM) | relative viability (Midostaurin + Foretinib; first compound 0.01 µM) | relative viability (Midostaurin + Foretinib; first compound 0.03162 µM) | relative viability (Midostaurin + Foretinib; first compound 0.1 µM) | relative viability (Midostaurin + Foretinib; first compound 0.3162 µM) | relative viability (Midostaurin + Navitoclax; first compound 0.01 µM) | relative viability (Midostaurin + Navitoclax; first compound 0.03162 µM) | relative viability (Midostaurin + Navitoclax; first compound 0.1 µM) | relative viability (Midostaurin + Navitoclax; first compound 0.3162 µM) | relative viability ([2]; 0.0128 µM) | relative viability ([2]; 0.04048 µM) | relative viability ([2]; 0.128 µM) | relative viability ([2]; 1.28 µM) | relative viability (Midostaurin; 0.01 µM) | relative viability (Midostaurin; 0.03162 µM) | relative viability (Midostaurin; 0.1 µM) | relative viability (Midostaurin; 0.3162 µM) |
| --- | --- | --- | --- | --- | --- | --- | --- | --- | --- | --- | --- | --- | --- | --- | --- | --- | --- | --- | --- | --- |
| SW 1573 | 0.52 | 0.556 | 0.492 | 0.477 | 1.05 | 0.806 | 1.03 | 1.01 | 0.957 | 1.01 | 0.971 | 1.22 | 0.926 | 0.922 | 0.982 | 0.766 | 0.991 | 1.08 | 1.05 | 0.969 |
| NCI-H727 | 0.415 |  | 0.37 | 0.341 | 1.11 | 0.932 | 0.829 | 0.846 | 0.41 | 0.368 | 0.361 | 0.4 | 0.974 |  | 0.826 | 0.906 | 1.03 | 0.82 | 1.05 | 0.767 |
| NCI-H441 | 0.438 | 0.463 | 0.407 | 0.336 | 0.808 | 0.848 | 0.858 | 0.693 | 0.402 | 0.832 | 0.522 | 0.554 | 1.03 | 0.976 | 0.922 | 0.84 | 0.954 | 1.03 | 0.874 | 0.902 |
| LOU-NH91 | 0.821 | 0.828 | 0.822 | 0.728 | 0.976 | 0.903 | 1.01 | 1.01 | 0.753 | 0.702 | 0.729 | 0.825 | 0.985 | 1.04 | 0.978 | 0.853 | 1.02 | 0.89 | 0.967 | 1 |
| NCI-H3122 | 0.209 |  | 0.165 | 0.162 | 0.926 | 0.94 | 0.718 | 0.976 | 1.07 | 0.993 | 1.03 | 1.04 | 1.07 |  | 0.987 | 0.76 | 1.03 | 0.962 | 0.95 | 1.05 |
| NCI-H460 | 0.111 | 0.0655 | 0.148 | 0.058 | 1.02 | 0.932 | 1 | 0.95 | 1.08 | 0.994 | 1.05 | 1.07 | 0.977 | 0.983 | 0.907 | 0.989 | 1.04 | 1.01 | 0.997 | 1.01 |
| NCI-H1793 | 0.446 | 0.24 | 0.469 | 0.359 | 0.674 | 0.644 | 0.533 | 0.369 | 0.417 | 0.533 | 0.513 | 0.493 | 0.904 | 0.827 | 0.858 | 0.649 | 1.16 | 0.848 | 0.89 | 0.762 |
| NCI-H1734 | 0.721 | 0.445 | 0.664 | 0.598 | 0.878 | 0.739 | 0.866 | 0.679 | 0.829 | 0.813 | 0.798 | 0.697 | 1 | 0.944 | 0.948 | 0.783 | 0.939 | 0.939 | 0.998 | 0.871 |
| LXF-289 | 0.78 | 0.468 | 0.692 | 0.811 | 0.967 | 0.941 | 0.897 | 0.988 | 0.954 | 0.92 | 0.875 | 0.968 | 1.11 | 0.989 | 1.01 | 1.06 | 1.03 | 1.01 | 0.973 | 1.03 |
| H3255 | 0.611 | 0.44 | 0.613 | 0.499 | 0.894 | 0.793 | 0.833 | 0.959 | 0.575 | 0.587 | 0.488 | 0.562 | 0.996 | 0.962 | 0.946 | 0.763 | 0.971 | 0.948 | 0.876 | 0.966 |
| 201T | 0.743 | 0.727 | 0.695 | 0.585 | 1.15 | 0.988 | 1.14 | 1.17 | 1.19 | 1.2 | 1.17 | 1.25 | 1.02 | 1.03 | 0.927 | 0.716 | 0.984 | 0.918 | 1 | 1.03 |
| NCI-H2126 | 0.55 | 0.497 | 0.508 | 0.448 | 1.19 | 1.14 | 1.04 | 1.15 | 0.92 | 0.826 | 0.824 | 0.903 | 1.04 | 1.01 | 0.963 | 0.792 | 1.02 | 0.872 | 0.999 | 1.02 |
| HOP-62 | 0.428 | 0.173 | 0.376 | 0.296 | 1.14 | 1.04 | 1.16 | 1.2 | 0.928 | 0.981 | 0.957 | 1.04 | 1.11 | 0.962 | 1.03 | 1.12 | 0.88 | 0.893 | 1.06 | 1.1 |
| CAL-12T | 0.331 | 0.289 | 0.349 | 0.326 | 1.17 | 0.959 | 0.733 | 1.11 | 1.44 | 0.981 | 1.05 | 1.2 | 1.03 | 1.03 | 1.06 | 0.991 | 1.05 | 0.882 | 0.921 | 0.839 |
| NCI-H520 | 0.606 | 0.354 | 0.55 | 0.361 | 0.68 | 0.715 | 0.661 | 0.688 | 1.05 | 1.17 | 1.02 | 0.865 | 0.79 | 0.959 | 0.836 | 0.778 | 0.914 | 0.96 | 1.07 | 0.863 |
